Tests used:
Assay type in all cases: biochemical
PKR(G332S) = PKR(G332S) (Homo sapiens, UniProt P30613, G332S); experiment: Luminescence Assay (Kinase Glo Plus), PKR G332S; conditions: read-out: AC50 (PKRG332S)
Protocol: (§1) For each tested compound, the ability to activate PKR was determined using the following Luminescence Assay. The effect of phosphorylation of adenosine-5′-diphosphate (ADP) by PKR is determined by the Kinase Glo Plus Assay (Promega) in the presence or absence of FBP (D-fructose-1,6-diphosphate; BOC Sciences, CAS: 81028-91-3) as follows. Unless otherwise indicated, all reagents are purchased from Sigma-Aldrich. All reagents are prepared in buffer containing 50 mM Tris-HCl, 100 mM KCl, 5 mM MgCl2, and 0.01% Triton X100, 0.03% BSA, and 1 mM DTT. Enzyme and PEP (phosphoenolpyruvate) are added at 2× to all wells of an assay-ready plate containing serial dilutions of test compounds or DMSO vehicle. Final enzyme concentrations for PKR(wt), PKR(R510Q), and PKR(G332S) are 0.8 nM, 0.8 nM, and 10 nM respectively. Final PEP concentration is 100 μM. The Enzyme/PEP mixture is incubated with compounds for 30 minutes at RT before the assay is initiated with the addition of 2×ADP and KinaseGloPlus. Final concentration of ADP is 100 μM. […] For assays containing FBP, that reagent is added at 30 μM upon reaction initiation. Reactions are allowed to progress for 45 minutes at RT until luminescence is recorded by the BMG PHERAstar FS Multilabel Reader. The compound is tested in triplicate at concentrations ranging from 42.5 μM to 2.2 nM in 0.83% DMSO. AC50 measurements were obtained by the standard four parameter fit algorithm of ActivityBase XE Runner (max, min, slope and AC50). The AC50 value for a compound is the concentration (μM) at which the activity along the four parameter logistic curve fit is halfway between minimum and maximum activity.
(§2) As set forth in Tables 2 and 3 below and in FIG. 1, AC50 values are defined as follows: ≤0.1 μM (+++); >0.1 μM and ≤1.0 μM (++); >1.0 μM and ≤40 μM (+); >40 μM (0).

PKR-R510Q = PKR-R510Q (Homo sapiens, UniProt P30613, R510Q); experiment: Luminescence Assay (Kinase Glo Plus), PKR R510Q; conditions: read-out: AC50 (PKRR510Q)
Chain of PKR-R510Q (P30613 whole entry R510Q): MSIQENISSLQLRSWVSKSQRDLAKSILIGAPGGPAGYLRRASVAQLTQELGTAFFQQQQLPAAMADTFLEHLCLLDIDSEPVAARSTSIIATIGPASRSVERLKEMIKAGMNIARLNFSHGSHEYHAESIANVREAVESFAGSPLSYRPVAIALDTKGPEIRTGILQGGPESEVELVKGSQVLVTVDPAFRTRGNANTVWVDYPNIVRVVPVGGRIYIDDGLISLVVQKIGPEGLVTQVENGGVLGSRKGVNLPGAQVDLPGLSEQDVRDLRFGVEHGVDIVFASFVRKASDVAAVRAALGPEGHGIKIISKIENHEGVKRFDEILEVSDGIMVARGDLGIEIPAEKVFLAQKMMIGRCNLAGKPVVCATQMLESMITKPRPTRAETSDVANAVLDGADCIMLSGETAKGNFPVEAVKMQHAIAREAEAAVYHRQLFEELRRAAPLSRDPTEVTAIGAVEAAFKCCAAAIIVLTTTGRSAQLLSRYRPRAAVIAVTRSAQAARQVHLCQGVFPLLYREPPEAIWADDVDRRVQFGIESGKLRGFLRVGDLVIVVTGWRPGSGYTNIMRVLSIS
Protocol: as §1, §2

PKR(wt) = PKR(wt) (Homo sapiens, UniProt P30613); experiment: Luminescence Assay (Kinase Glo Plus), PKR wild type
Chain of PKR(wt) (P30613 whole entry): as the sequence (P30613 whole entry R510Q) above, with Q510R counted along it
Protocol: as §1, with “AC50 measurements were obtained by the standard four parameter fit algorithm of ActivityBase XE Runner (max, min, slope and AC50). The AC50 value for a compound is the concentration (μM) at which the activity along the four parameter logistic curve fit is halfway between minimum and maximum activity.” left out

Chain of PKR(G332S) (P30613 whole entry G332S): as the sequence (P30613 whole entry R510Q) above, with G332S, Q510R counted along it

Row | Structure (SMILES) | AC50 (PKR(G332S)) [µM] | AC50 (PKR-R510Q) [µM] | AC50 (PKR(wt)) [µM]
1 | O=C([C@@H](CO)c1ccccc1)N1CC2=C(C1)CN(S(=O)(=O)c1cnc3c(c1)OCCO3)C2 (single isomer, unassigned) [Compound 2] | 1 to 40 | 1 to 40 | 1 to 40
2 | O=C([C@H](CO)c1ccccc1)N1CC2=C(C1)CN(C(=O)[C@H](CO)c1ccccc1)C2 [Compound 7] | > 40 | > 40 | –
